Reference: US20090170867A1, “TRPV1 ANTAGONISTS INCLUDING SULFONAMIDE SUBSTITUENT AND USES THEREOF” (Shionogi & Co., Ltd., priority 2007, published 2009)
≈ marks a conversion by molar mass, not a printed value. Where two headings read alike, the source gives them in different places.

Key:
[1] = molecular target: T1, human TRPV1 (Homo sapiens, UniProt Q8NER1); experiment: pH-based assay, Protocol 2 (TRPV1/CHO cells, Fura-2 AM, FDSS-3000, pH 5.0-5.1); format: cell-based; conditions: H2SO4 agonist, mean ± SEM, number of trials in parentheses, read-out: TRPV1 IC50 Potency, Human pH CHO (hpH-CHO)
T1 construct: using primers designed surrounding the complete hTRPV1 open reading frame; expressed in transfected cells; host or cells: CHO-K1 cells stably transfected with pcDNA3.1(-)-hVR1 plasmid
Description: For Protocol 2, a Chinese Hamster Ovary cell line (CHO) that has been engineered to constitutively express human recombinant TRPV1 was used (TRPV1/CHO cells). The TRPV1/CHO cell line was generated as described below.
The resulting PCR products were purified from agarose gels using Gel Band Purification Kit (GE Healthcare Bioscience) and were subcloned into pCR-Blunt vector (Invitrogen). The cloned cDNA was fully sequenced using a fluorescent dye-terminator reagent (BigDye Terminator ver3.1 Cycle Sequencing Kit, Applied Biosystems) and ABI Prism 3100 genetic analyzer (Applied Biosystems). The pCR-Blunt vector containing the hTRPV1 cDNA was subjected to restriction digestion with EcoRI. The restriction fragment was subcloned into expression vector pcDNA3.1 (−) (Invitrogen) and named pcDNA3.1 (−)-hVR1 plasmid. The sequence of the cDNA encoding TRPV1 is available at GenBank accession number AJ277028.
CHO-K1 cells were maintained in growth medium consisting of α-MEM, 10% FBS (Hyclone), and 100 IU/mL of penicillin-100 μg/mL of streptomycin mixed solution (Nacalai Tesque, Japan) at 37° C. in an environment of humidified 95% air and 5% CO2. The cells were transfected with the pcDNA3.1 (−)-hVR1 plasmid using FuGENE6 (Roche) according to the manufacturer's protocol. 24 hr after transfection, neomycin-resistant cells were selected using 1 mg/mL G418 (Nacalai Tesque). After 2 weeks, individual colonies were picked, expanded, and screened for the expression of hTRPV1 in the capsaicin-induced Ca^2+ influx assay (see below) with a FLIPR (Molecular Devices). A clone with the largest Ca^2+ response to capsaicin was selected and re-cloned by the same procedure. The cells expressing hTRPV1 were cultured in the growth medium supplemented with 1 mg/mL G418.
TRPV1/CHO cells were seeded in the 96-well clear-bottom black-wall plate (Nunc) at densities of 1-2×10^4 cells/well and grown in 100 μL of culture medium (alpha-MEM supplemented with 10% FBS, 20 mM HEPES, 1 mg/mL geneticin and 1% antibiotic-antimycotic mixed stock solution) for 1-2 days before the experiment.
Different agonist solutions with sulfuric acid concentrations of from 15 mM to 18 mM (see FIG. 1) were prepared by diluting 1M sulfuric acid with measuring buffer. The different sulfuric acid concentrations in the agonist solutions were selected such that a 1:4 dilution would result in a final sulfuric acid concentration of between 3.0 mM to 3.6 mM, respectively, as indicated in FIG. 1.
The cells were stimulated using 3.0 mM (well number B1-6), 3.1 mM (C1-6), 3.2 mM (D1-6), 3.3 mM (E1-6), 3.4 mM (F1-6), 3.5 mM (G1-6), or 3.6 mM (H1-6) H2SO4 or pH 7.2 measuring buffer without H2SO4 (A1-6) (FIG. 2).
(1) Culture medium was removed using an 8-channel-pipette (Rainin, USA) from the 96-well plate and the wells were refilled with 100 μL of loading buffer (20 mM HEPES, 115 mM NaCl, 5.4 mM KCl, 0.8 mM MgCl2, 1.8 mM CaCl2, 13.8 mM D-glucose, 2.5 mM probenecid, pH 7.4) containing 5 μM Fura-2 AM (Dojin, Japan).
(2) The 96-well plate was incubated at 37° C. for 45 min.
(3) The loading buffer was removed from each well. The cells were subsequently washed twice with 150 μL of measuring buffer (20 mM HEPES, 115 mM NaCl, 5.4 mM KCl, 0.8 mM MgCl2, 5.0 mM CaCl2, 13.8 mM D-glucose, 0.1% BSA, pH 7.4) (no probenecid). The wells were then refilled with 80 μL of measuring buffer.
(4) After an incubation at 4° C. for 15 min, the 96-well plate was transferred to FDSS-3000 (Hamamatsu Photonics, Japan).
(5) The Fura-2 fluorescent intensity was monitored at a wavelength of 340 nm and at 380 nm, respectively, at a rate of 0.5 Hz for a total of 240 seconds.

[2] = molecular target: T1, human TRPV1; experiment: Capsaicin-based assay, Protocol 2 (TRPV1/CHO cells, Fluo-4, FLIPR); format: cell-based; conditions: capsaicin 100 nM final, mean ± SEM, number of trials in parentheses, read-out: TRPV1 IC50 Potency, Human Capsaicin CHO (hCAP-CHO)
Outline: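 CHO cells stably transfected with human TRPV1 cDNA, kept under G418 selection, loaded with 3 μM Fluo-4 for 1 h. Calcium fluorescence followed on FLIPR after a 15 s baseline against capsaicin challenge; compounds at final 100 μM to 1.5625 μM, curves fitted over the full time course.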

[3] = Aqueous solubility; format: physicochemical; conditions: aqueous solution
[4] = pH 1.2, simulated gastric fluid, read-out: aqueous solubility at pH 1.2
[5] = pH 6.8, aqueous buffer, read-out: aqueous solubility at pH 6.8

T1 sequence (Q8NER1 whole entry): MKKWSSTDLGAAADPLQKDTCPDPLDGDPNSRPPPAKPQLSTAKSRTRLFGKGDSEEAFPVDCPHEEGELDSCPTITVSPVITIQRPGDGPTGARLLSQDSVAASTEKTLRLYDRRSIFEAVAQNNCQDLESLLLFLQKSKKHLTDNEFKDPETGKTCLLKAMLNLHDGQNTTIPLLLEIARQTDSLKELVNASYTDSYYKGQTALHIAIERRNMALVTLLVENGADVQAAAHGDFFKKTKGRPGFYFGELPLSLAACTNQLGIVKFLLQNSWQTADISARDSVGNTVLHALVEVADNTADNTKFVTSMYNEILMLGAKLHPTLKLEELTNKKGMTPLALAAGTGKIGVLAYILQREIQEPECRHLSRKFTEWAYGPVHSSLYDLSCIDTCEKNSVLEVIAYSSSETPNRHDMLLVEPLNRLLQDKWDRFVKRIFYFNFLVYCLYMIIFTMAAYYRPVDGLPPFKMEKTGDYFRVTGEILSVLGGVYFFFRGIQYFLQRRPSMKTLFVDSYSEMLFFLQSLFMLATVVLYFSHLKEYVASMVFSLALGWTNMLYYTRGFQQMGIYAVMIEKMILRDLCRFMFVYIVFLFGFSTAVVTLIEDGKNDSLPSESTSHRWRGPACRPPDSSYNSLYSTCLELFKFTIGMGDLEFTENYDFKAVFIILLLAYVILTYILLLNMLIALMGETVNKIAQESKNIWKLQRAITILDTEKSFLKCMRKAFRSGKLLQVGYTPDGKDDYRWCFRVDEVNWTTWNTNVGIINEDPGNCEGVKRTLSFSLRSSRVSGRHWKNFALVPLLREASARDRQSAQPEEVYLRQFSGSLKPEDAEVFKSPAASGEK

Row | Compound | IC50 [1] [nM] | IC50 [2] [nM] | solubility [3, 4] [µM] | solubility [3, 5] [µM]
1 | CCOC(=O)c1cnc(C2=CCN(C(=O)Nc3ccc(C(F)(F)F)cc3)CC2)c(Cl)c1 [Compound F2] | 62.9 ± 8.8 | 108 ± 24.3 | 1 (≈ 0.454 µg/mL) | 3 (≈ 1.36 µg/mL)
2 | N#CCc1cnc(C2=CCN(C(=O)Nc3ccc(C(F)(F)F)cc3)CC2)c(Cl)c1 [Compound E6, 4-(3-chloro-5-(cyanomethyl)pyridin-2-yl)-N-(4-(trifluoromethyl)phenyl)-5,6-dihydropyridine-1(2H)-carboxamide] | – | 265 | 27.2 (≈ 11.4 µg/mL) | 9 (≈ 3.79 µg/mL)
3 | O=C(Nc1ccc(C(F)(F)F)cc1)N1CC=C(c2ncc(CO)cc2Cl)CC1 [Compound J2] | 41.7 ± 4.4 | 129 ± 26 | > 50 | > 50
4 | CN(C)Cc1cnc(C2=CCN(C(=O)Nc3ccc(C(F)(F)F)cc3)CC2)c(Cl)c1 [Compound H6] | – | 924 | > 50 | > 50
5 | O=C(Nc1ccc(C(F)(F)F)c(F)c1)N1CCC(F)(c2ncc([C@H](O)CO)cc2Cl)CC1 [Compound F1] | 9 ± 2.3 | 18.6 ± 6.8 | > 50 | 22.6 (≈ 10.8 µg/mL)
6 | O=C(Nc1ccc(C(F)(F)F)c(Cl)c1)N1CC=C(c2ncc([C@H](O)CO)cc2F)CC1 [Compound U3] | 13.5 | 27.9 ± 9.9 | > 50 | 26.4 (≈ 12.1 µg/mL)
7 | O=C(Nc1ccc(C(F)(F)F)cc1)N1CCC(F)(c2ncc([C@H](O)CO)cc2F)CC1 [Compound N6] | – | – | > 50 | > 50
8 | O=C(Nc1ccc(OC(F)(F)F)cc1)N1CCC(F)(c2ncc([C@H](O)CO)cc2Cl)CC1 [Compound C1] | 11.3 ± 0.8 | 15.3 ± 6.9 | > 50 | 15.7 (≈ 7.5 µg/mL)
9 | O=C(O)Cc1cnc(C2=CCN(C(=O)Nc3ccc(C(F)(F)F)cc3)CC2)c(Cl)c1 [Compound G6] | – | > 25000 | > 50 | > 50
10 | O=C(Nc1ccc(OC(F)(F)F)cc1)N1CC=C(c2ncc([C@H](O)CO)cc2Cl)CC1 [Compound E2] | 20.3 ± 1.7 | 107 ± 18.8 | > 50 | > 50
11 | O=C(Nc1ccc(C(F)(F)F)cc1)N1CC=C(c2ncccc2Cl)CC1 [Compound 200] | – | – | < 0.1 | < 0.1
12 | CC(O)c1cnc(C2=CCN(C(=O)Nc3ccc(C(F)(F)F)cc3)CC2)c(Cl)c1 (stereo not drawn) [Compound G2] | 84.8 ± 8.8 | 112 ± 22.3 | > 50 | 38.2 (≈ 16.3 µg/mL)
13 | O=C(Nc1ccc(C(F)(F)F)cc1)N1CC=C(c2ncc([C@H](O)CO)cc2Cl)CC1 [Compound Z1, (S)-3-Chloro-5-(1,2-dihydroxy-ethyl)-3′,6′-dihydro-2′H-[2,4′]bipyridinyl-1′-carboxylic acid (4-trifluoromethyl-phenyl)amide] | 11.6 ± 0.7 | 75.8 ± 12.4 | > 50 | > 50
14 | O=C(Nc1ccc(C(F)(F)F)cc1)N1CC=C(c2ncc([C@@H](O)CO)cc2Cl)CC1 [Compound L3] | 38.3 ± 4 | 37.1 ± 14.8 | – | –
15 | O=C(Nc1ccc(OC(F)(F)F)c(Cl)c1)N1CCC(F)(c2ncc([C@H](O)CO)cc2Cl)CC1 [Compound M1] | 5.7 ± 0.3 | 37.5 ± 9 | – | –
16 | O=C(Nc1ccc(C(F)(F)F)cn1)N1CC=C(c2ncccc2Cl)CC1 [Compound 201] | 185 | 131 | – | –
17 | Cc1ccc(NC(=O)N2CC=C(c3ncc([C@H](O)CO)cc3Cl)CC2)cc1C(F)(F)F [Compound I5] | 118 ± 27.5 | 709 ± 94.1 | – | –
18 | O=C(Nc1ccc(C(F)(F)F)c(Cl)c1)N1CCC(F)(c2ncc([C@@H](O)CO)cc2Cl)CC1 [Compound T3] | 12.9 | 23.8 ± 6.8 | – | –
19 | O=C(Nc1ccc(C(F)(F)F)c(F)c1)N1CCC(F)(c2ncc([C@@H](O)CO)cc2F)CC1 [Compound A6] | 9 ± 0.8 | 49.8 ± 12.1 | – | –
20 | O=C(Nc1ccc(C(F)(F)F)cn1)N1CC=C(c2ncc([C@H](O)CO)cc2Cl)CC1 [Compound K1] | 39.5 | 35.1 ± 8.8 | – | –
21 | O=C(Nc1ccc(C(F)(F)F)c(F)c1)N1CCC(F)(c2ncc([C@H](O)CO)cc2F)CC1 [Compound Y3] | – | 43.9 ± 10 | > 50 | 17.4 (≈ 8.06 µg/mL)
22 | CC(C)c1cc(NC(=O)N2CC=C(c3ncc([C@H](O)CO)cc3Cl)CC2)ccc1OC(F)(F)F [Compound B2] | 40.5 | 77.6 ± 12 | – | –
23 | O=C(Nc1nc2ccc(F)cc2s1)N1CCC(F)(c2ncc([C@H](O)CO)cc2Cl)CC1 [Compound L1, (S)-4-(3-chloro-5-(1,2-dihydroxyethyl)pyridin-2-yl)-4-fluoro-N-(6-fluorobenzo[d]thiazol-2-yl)piperidine-1-carboxamide] | 27.5 ± 3.4 | 35.3 ± 12 | – | –
24 | O=C(Nc1nc2ccc(Cl)cc2s1)N1CC=C(c2ncc([C@@H](O)CO)cc2Cl)CC1 [Compound P3] | 28.5 | 183 ± 38.1 | – | –
25 | O=C(Nc1ccc(S(=O)(=O)C(F)(F)F)cc1)N1CCC(F)(c2ncc([C@H](O)CO)cc2Cl)CC1 [Compound H1] | – | 31.7 ± 8.9 | > 50 | > 50
26 | O=C(Nc1ccc(C(F)(F)F)cc1)N1CCN(c2ncc([C@H](O)CO)cc2Cl)CC1 [Compound M6, (S)-4-(3-chloro-5-(1,2-dihydroxyethyl)pyridin-2-yl)-N-(4-(trifluoromethyl)phenyl)piperazine-1-carboxamide] | 3.5 ± 1 | 7 ± 1 | – | –
27 | CC(C)(C)c1ccc(NC(=O)N2CC=C(c3ncc([C@H](O)CO)cc3Cl)CC2)cc1 [Compound I1, (S)-3-Chloro-5-(1,2-dihydroxy-ethyl)-3′,6′-dihydro-2′H-[2,4′]bipyridinyl-1′-carboxylic acid (4-tert-butyl-phenyl)amide] | 1.1 ± 0.2 | 33.8 ± 9.1 | – | –
